Key:
[1] = test system: MOLT-4; test: CellTiter-Glo luminescent cell viability assay (ATP quantification), MOLT-4; type: cell-based; settings: acute lymfoblastic leukemia cells, 72 h treatment, viable cells by ATP luminescence
Procedure: (§1) Influence of the test compounds on viability (proliferation) of cell lines used was investigated in concentration range 0-100 μmol·l^−1.
(§2) Suspension cell line MOLT-4 is a permanent in vitro culture of acute lymfoblastic leukemia. Linie MOLT-4 cell line was cultivated in RPMI 1640 medium (Sigma-Aldrich, see above) with addition of 2 mmol glutamine (Invitrogen, see above), 10% fetal bovine serum (FBS, Sigma-Aldrich, see above), 100 IU/ml peniciline, 100 μg/ml streptomycine (Sigma-Aldrich, see above). Passaging was performed 2-3× a week. Population doubling time of MOLT-4 cell line was 25 h under the cultivation conditions used.
(§3) In order to test the sensitivity of the cell lines towards the studied helquats, cytotoxity test for cell viability assessment based on ATP quantification in cell lysates was used (CellTiter-Glo® Luminescent Cell Viability Assay, Promega, cat. no. G7571). In this test, ATP in cell lysates is detected using luciferase reaction. Luminescence intensity correlates with the ATP level and thus with quantity of metabolically active (viable) cells. IC50 value serves as the output, that is the concentration of the test compound which leads to 50% reduction in number of viable cells as compared to control, untreated population. To this end, IC50 value reflects efficiency of the test compound with regard to the given cell line.
(§4) Cells in the exponential growth phase were seeded into a 96-well microtiter plate were plated at 3000 cells per well. Each well contained 90 μl of cell suspension. The next day, 10 μl of 10× concentrated test compound solutions were added. The effect of helquats was investigated in concentration range 1 to 100 μmol·l^−1 (e.g. 1; 2.5; 5; 7.5; 10; 15; 25; 50 and 100 μmol·l^−1). Apart from the section containing the concentration series of the test compound, each well contained 2 control columns, the first with pure medium (so called blank) and the second with cells in medium without the test compounds (control). Into wells containing controls and blanks, volume of solvent (water) equal to the volume of added compound solutions was added. After 72 h of incubation with the test compounds viability was determined according to the manufacturer's instructions. In short: microtiter well plate was left 30 min to reach the room temperature after it has been removed from the incubator. Then, into each well, 100 μl of the prepared detection agent was added. Next, the well plate was shaken for 2 min to complete the full lysis. Next, after the well had been left in the dark for 15 min, the luminescence was measured in each well using luminometer (Tecan Genios, Austria).
(§5) IC50 value represents concentration of the test compound, which leads to 50% reduction of viable cells (inhibition of cell growth) after 72 h of the treatment. Each helquat concentration was tested in triplicates in a IC50 quantification and at least 3 independent IC50 quantification experiments were performed. IC50 values over 100 μmol·l^−1 were obtained by extrapolation of data measured in concentration range 0-100 μmol·l^−1 for the given helquat.

[2] = test system: NHDF-Ad; test: CellTiter-Glo luminescent cell viability assay (ATP quantification), NHDF-Ad normal cells; type: cell-based; settings: normal human dermal fibroblasts, 72 h treatment
Text: as §1
Normal human dermal fibroblasts were cultivated without antibiotics in basal medium for fibroblasts (ATCC/LGC Standards, cat. no. PCS-201-030) with added “Fibroblast Growth Kit-Low serum” (ATCC/LGC Standards, cat. no. PCS-201-041) containing 2% FBS, L-glutamine, hydrocortisone, ascorbic acid, rh FGF beta, rh insulin. When 90% confluency was reached the fibroblasts were washed with sterile PBS (5 ml) and dissociated by addition of 0.25% solution of trypsin/EDTA (2 ml; 2 min; 37° C.). After that 5 ml of cultivation medium for fibroblasts was added and the cells were centrifuged (180×g, 7 min), the cell pellet was resuspended, and transferred in the amount needed into a new cultivation bottle with fresh medium. The same cell release procedure was applied when the cells were to be used in experiments. The cells were used in experiments between the 3rd and the 15th passage after defreeezing. Population doubling time of NHDF-Ad cell line was 33 h under the cultivation conditions used.
as §3, §4, §5

[3] = test system: HL-60; test: CellTiter-Glo luminescent cell viability assay (ATP quantification), HL-60; type: cell-based; settings: acute promyelocytic leukemia cells, 72 h treatment, viable cells by ATP luminescence
Procedure: as §1
as §2, with “HL-60” for “MOLT-4”, “promyelocytic” for “lymfoblastic”, “HL-60” for “Linie MOLT-4”, “mmol·l^−1” for “mmol”, “23” for “25”
as §3, §4, §5

[4] = test system: HeLa; test: CellTiter-Glo luminescent cell viability assay (ATP quantification), HeLa; type: cell-based; settings: cervical cancer cells, 72 h treatment, viable cells by ATP luminescence
Procedure: as §1
Adherent cell line HeLa is a permanent in vitro culture derived from cervical cancer. HeLa cell line was cultivated in RPMI 1640 medium (Dutch modification) (Sigma-Aldrich, cat. no. R7638) with addition of 2 mmol·l^−1 glutamine (Invitrogen, see above), 10% fetal bovine serum (FBS, Sigma-Aldrich, see above), 100 IU/ml peniciline, 100 μg/ml streptomycine (Sigma-Aldrich, see above). Passaging was performed twice a week. After washing of cells with sterile PBS the cells were released by 0.25% trypsin/EDTA (Sigma-Aldrich, cat. no. T4049) at 37° C. for 2 minutes. The trypsin was inactivated by addition of 2 volumes of complete medium, cells were then centrifuged (250×g, 5 min), the cell pellet was resuspended, and transferred in the amount needed into a new cultivation bottle with fresh medium. Population doubling time of […] cell line was 25 h under the cultivation conditions used.
as §3, §4, §5

[5] = test system: HUVEC; test: CellTiter-Glo luminescent cell viability assay (ATP quantification), HUVEC normal cells; type: cell-based, human; settings: 72 h treatment
Procedure: as §1
Normal human endothelial cells from umbilical vein are adherent cells cultivated in plastic Petri dishes coated with collagen I. Into the cultivation medium (E-STIM™; BD Biosciences, cat. co. 355054) already containing 2% FBS (fetal bovine serum), hydrocortisone and heparin the following two further ingredients were added: epidermal growth factor (EGF, 5 μg) and mixture of factors facilitating growth of endothelial cells (ECGS, 100 mg). […] The cells were passaged after reaching 90% confluency by dissociation using 0.25% solution of trypsin/EDTA (1 ml; 3 min; 37° C.). After that 5 ml of complete cultivation medium E-STIM™ was added and the cells were centrifuged (180×g, 7 min), the pellet was resuspended, and transferred in the amount needed into a new Petri dish with fresh medium. The cells were used in experiments between the 3rd and the 8th passage after defreezing. Population doubling time of HUVEC cell line was 38 h under the cultivation conditions used.
as §3, §4, §5

[6] = viable cells by ATP luminescence, class symbols

IC50 [1] | IC50 [3] | IC50 [4] | IC50 ([1]; Homo sapiens, MOLT-4) | IC50 ([3]; Homo sapiens, HL-60) | IC50 ([4]; Homo sapiens, HeLa) | Structure (SMILES) | IC50 [2, 6] | IC50 ([5]; normal human endothelial cells, numeric bound, values over 100 obtained by extrapolation of data measured at 0-100 μmol·l−1) | IC50 ([2]; Fibroblast, numeric bound, values over 100 obtained by extrapolation of data measured at 0-100 μmol·l−1) | IC50 ([5]; HUVEC, normal human endothelial cells, numeric bound, values over 100 obtained by extrapolation of data measured at 0-100 μmol·l−1) | IC50 ([5]; normal human endothelial cells from umbilical vein, viable cells by ATP luminescence, class symbols)
< 10 µM | < 10 µM | < 10 µM |  |  |  | Cc1c(C)c2c(c3c1CC[n+]1ccc(/C=C/c4ccc(N(C)C)cc4)cc1-3)-c1c3ccccc3cc[n+]1CC2 [(M)-1, (M)-(E)-13-(4-(dimethylamino)styryl)-6,7-dimethyl-4,5,8,9-tetrahydroiso-quinolino[1,2-a]pyrido[1,2-k][2,9]phenanthroline-3,10-diium trifluoromethanesulfonate] | 51 to 150 µM | > 150 µM |  |  | 
 |  |  | 11 to 50 µM | 11 to 50 µM | 11 to 50 µM | COc1ccc(/C=C/c2cc[n+]3c(c2)-c2c(c(C)c(C)c4c2-c2c5ccccc5cc[n+]2CC4)CC3)cc1 [(M)-6, (M)-(E)-13-(4-methoxystyryl)-6,7-dimethyl-4,5,8,9-tetrahydroisoquinolino[1,2-a]pyrido[1,2-k][2,9]phenanthroline-3,10-diium trifluoromethanesulfonate] |  |  | > 150 µM | > 150 µM | 
< 10 µM | < 10 µM | < 10 µM |  |  |  | COc1ccc2cc(/C=C/c3cc[n+]4c(c3)-c3c(c(C)c(C)c5c3-c3c6ccccc6cc[n+]3CC5)CC4)ccc2c1 [(M)-7, (M)-(E)-13-(2-(6-methoxynaphthalene-2-yl)vinyl)-6,7-dimethyl-4,5,8,9-tetrahydroisoquinolino[1,2-a]pyrido[1,2-k][2,9]phenanthroline-3,10-diium trifluoromethanesulfonate] | 51 to 150 µM |  |  |  | 51 to 150 µM

Reference: patent publication US9340543B2, “Helquat derivatives, preparation thereof, and use thereof as medicaments” (USTAV ORGANICKE CHEMIE A BIOCHEMIE AKADEMIE VED CR, V.V.I., priority 2013, dated 2016)
